Measurements reported in patent publication US12209111B2, “Targeting P18 for mTOR-related disorders” (WESTERN UNIVERSITY OF HEALTH SCIENCES, priority 2018, dated 2025).
“Also recorded” adds a separate entry of the source. Where a SMILES comes first, the peptide text is derived from it. The star is where a group is joined. Cbz = O=C(OCc1ccccc1)*

Legend:
Hela cell [1] = experiment: Lysosome positioning in Hela cells (Lysotracker live imaging); type: cell-based; conditions: for lysosome distribution to the peripheral region of the cell: before and 30 min after treatment (FIG. 20B)
Procedure: (§1) (A) Amino acid sequence of human p18 (SEQ ID NO: 23). G2 is a myristoylation site. C3 and C4 are palmitoylation sites. K20, K31, K60, K103, K104, and K151 (red) are potential ubiquitination sites. Two short peptides around K20/31 and K151 (underlined) were respectively conjugated to the cell membrane transduction domain of HIV-1 Tat protein (TAT-2031 and TAT-151). […] Hela cells were stained with Lysotracker (red) and imaged live. Top panel, representative images of Lysotracker before and 30 min after TAT-2031 treatment are shown. Bottom panel, graph represents the distribution of lysosomes relative to the MTOC, normalized to the distance between the MTOC and the cell periphery. (C) Hela cells were incubated with TAT or TAT-2031 (2 μM) for 42 hr. Representative blots and quantification of p18, p-mTOR/mTOR, p-S6K1/S6K1, and p-S6/S6 in whole cell lysates are shown. N=2 independent experiments.
(§2) Example 9: Short peptides targeting p18 reduced mTOR activation and promoted peripheral positioning of lysosomes in HELA cells. To test whether blocking p18 ubiquitination and interruption of its interaction with other proteins could disrupt mTOR signaling and lysosome localization and function, we designed two small decoy peptides (TAT-2031 and TAT-151) targeting different domains of p18 containing lysine residues (FIG. 20A); these peptides are conjugated to the cell membrane transduction domain of HIV-1 Tat protein. […] SEQ ID NO:19 corresponds to […], residues 20-31 of p18.

mTOR signaling pathway = experiment: mTOR signaling in Hela cells treated with p18 short peptides, Western blot; type: cell-based; conditions: for mTORC1 activation: Hela cells (FIG. 20C); for Effects: mTOR signaling pathway: Hela cells, TAT or TAT-2031 2 μM for 42 hr, ratios p-mTOR/mTOR, p-S6K1/S6K1, p-S6/S6
Procedure: as §1, §2

Hela cell [2] = experiment: Migration of Hela cell; type: cell-based
p18-TRPML1 interaction = p18-TRPML1 interaction (Homo sapiens, UniProt Q6IAA8); experiment: p18-TRPML1 interaction
Excerpt: as §2

mTOR = molecular target: T1, mTOR (Mus musculus, UniProt Q9JLN9); experiment: MHY1485 treatment of hippocampal slices from p18 siRNA-injected WT mice (LTP, Western blot); type: cell-based; conditions: 2 μM, 60 min pre-incubation, to levels of control siRNA-injected WT mice
T1 construct: Pre-incubation of hippocampal slices with MHY1485 (2 μM) for 60 min reestablished TBS-elicited LTP; from tissue; host or cells: acute hippocampal slices from AAV p18 siRNA- or control siRNA-injected WT mice
Procedure: Electrophysiology. After 1.5 h incubation at 33±0.5° C. in the recording chamber, a single glass pipette filled with 2 M NaCl was used to record field EPSPs (fEPSPs) elicited by stimulation of the Schaffer collateral pathway with twisted nichrome wires (single bare wire diameter, 50 μm) placed in CA1 stratum radiatum. Stimulation pulses were generated using a Multichannel Systems Model STG4002 Stimulator (Reutlingen, Germany). Responses were recorded through a differential amplifier (DAM 50, World Precision Instruments, USA) with a […]. Before each experiment, the input/output (I/O) relation was examined by varying the intensity of the stimulation. Paired-pulse facilitation was tested at 20-300 ms interval. Long-term potentiation (LTP) was induced using theta burst stimulation (10 bursts at 5 Hz, each burst consisting of 4 pulses at 100 Hz, with a pulse duration of 0.2 ms). For LTP and paired-pulse facilitation experiments, the stimulation intensity was regulated to a current which elicited a 40% of maximal response. Data were collected and digitized by Clampex, and the slope of fEPSP was analyzed. […] All data are expressed as means±SEM, and statistical significance of differences between means was calculated with appropriate statistical tests as indicated in figure legends.

p18 [3] = experiment: Cultured hippocampal neurons treated with MG132 or BafA, p18 immunofluorescence; type: cell-based, mouse; conditions: 4 h
p18 [4] = experiment: Acute hippocampal slices treated with proteasome or lysosome inhibitor, p18 Western blot; type: cell-based, mouse; conditions: 30 min
Procedure: Acute Hippocampal Slice Preparation. Adult male mice (2-4-month-old) were anesthetized with gaseous isoflurane and decapitated. Brains were quickly removed and transferred to oxygenated, ice-cold cutting medium (in mM): 124 NaCl, 26 NaHCO3, 10 glucose, 3 KCl, 1.25 KH2PO4, 5 MgSO4, and 3.4 CaCl2. Hippocampal transversal slices (400 μm-thick) were prepared using a McIlwain-type tissue chopper and transferred to i) an interface recording chamber and exposed to a warm, humidified atmosphere of 95% O2/5% CO2 and continuously perfused with oxygenated and preheated (33±0.5° C.) artificial cerebrospinal fluid (aCSF) (in mM) [110 NaCl, 5 KCl, 2.5 CaCl2, 1.5 MgSO4, 1.24 KH2PO4, 10 D-glucose, 27.4 NaHCO3], perfused at 1.4 ml/min (electrophysiology); or ii) a recovery chamber with a modified aCSF medium, containing (in mM): 124 NaCl, 2.5 KCl, 2.5 CaCl2, 1.5 MgSO4, 1.25 NaH2PO4, 24 NaHCO3, 10 D-glucose, and saturated with 95% O2/5% CO2 for 1 h at 37° C. (biochemical assays).
To determine whether Ube3a-mediated regulation of p18 was proteasome- and/or lysosome-dependent, acute hippocampal slices from WT and AS mice were treated with either a proteasome inhibitor, MG132 (10 μM), or a lysosome inhibitor, the vacuolar H+-ATPase (V-ATPase) inhibitor, bafilomycin A1 (BafA, 100 nM), for 30 min.

Sequence of p18-TRPML1 interaction (Q9GZU1 whole entry partner): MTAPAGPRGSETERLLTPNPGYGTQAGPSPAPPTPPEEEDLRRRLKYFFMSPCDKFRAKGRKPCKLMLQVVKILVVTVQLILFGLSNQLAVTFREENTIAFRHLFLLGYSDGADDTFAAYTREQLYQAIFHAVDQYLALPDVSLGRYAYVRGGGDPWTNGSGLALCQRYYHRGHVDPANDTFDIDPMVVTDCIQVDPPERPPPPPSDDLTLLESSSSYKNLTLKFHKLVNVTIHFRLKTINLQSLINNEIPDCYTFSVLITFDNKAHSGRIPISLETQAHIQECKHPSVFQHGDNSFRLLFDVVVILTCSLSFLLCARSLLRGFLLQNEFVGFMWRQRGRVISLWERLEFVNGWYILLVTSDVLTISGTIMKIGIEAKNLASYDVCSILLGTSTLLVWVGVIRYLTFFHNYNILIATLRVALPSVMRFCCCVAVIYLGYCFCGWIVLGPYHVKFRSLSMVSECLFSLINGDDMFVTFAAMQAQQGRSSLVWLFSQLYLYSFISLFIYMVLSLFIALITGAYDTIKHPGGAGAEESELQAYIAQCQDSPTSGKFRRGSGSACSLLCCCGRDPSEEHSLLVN
Sequence of p18-TRPML1 interaction (Q6IAA8 whole entry): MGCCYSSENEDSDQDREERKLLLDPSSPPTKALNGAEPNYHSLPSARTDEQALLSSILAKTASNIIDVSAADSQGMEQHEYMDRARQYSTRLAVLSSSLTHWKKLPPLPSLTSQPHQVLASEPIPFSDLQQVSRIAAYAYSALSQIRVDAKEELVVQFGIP

TAT-151: Short p18 peptide around K151 conjugated to HIV-1 Tat transduction domain: YGRKKRRQRRRKEELVV
lysosome distribution to the peripheral region of the cell (Hela cell [1]): not
mTORC1 activation (mTOR signaling pathway): not
Effects: mTOR signaling pathway (mTOR signaling pathway): Little

TAT: Cell membrane transduction domain of HIV-1 Tat protein, YGRKKRRQRRR; control peptide [reference compound]
Effects: Migration of Hela cell (Hela cell [2]): No
Effects: Lysosome positioning in Hela cell (Hela cell [1]): No
Effects: p18-TRPML1 interaction (p18-TRPML1 interaction): No
Effects: mTOR signaling pathway (mTOR signaling pathway): No

O=[N+]([O-])c1ccc(Nc2nc(N3CCOCC3)nc(N3CCOCC3)n2)cc1 [MHY1485]
TBS-elicited LTP (mTOR): reestablished

TAT-2031: p18 residues 20-31 (KLLLDPSSPPTK) conjugated to HIV-1 Tat transduction domain: YGRKKRRQRRRKLLLDPSSPPTK
Effects: Migration of Hela cell (Hela cell [2]): Slightly reduced
lysosome distribution to the peripheral region of the cell (Hela cell [1]): increased; also recorded: shifted the distribution of lysosomes toward the cell periphery
lysosome distribution to the peripheral region of the cell (Hela cell [1]; listed as short decoy peptide around K20/31): increased
Effects: p18-TRPML1 interaction (p18-TRPML1 interaction): Reduced the
mTORC1 activation (mTOR signaling pathway): significantly reduced

CO/C1=C\C(C)=C\[C@@H](C)[C@@H](O)[C@@H](C)C/C(C)=C/C=C/[C@H](OC)[C@@H]([C@@H](C)[C@@H](O)[C@H](C)[C@@]2(O)C[C@@H](O)[C@H](C)[C@@H](C(C)C)O2)OC1=O [BafA, bafilomycin A1]
p18 intensity (p18 [3]; cultured hippocampal neurons from both WT and AS mice, 100 nM): only slightly increased

CC(C)C[C@@H](C=O)NC(=O)[C@H](CC(C)C)NC(=O)[C@H](CC(C)C)NC(=O)OCc1ccccc1 [MG132] (Cbz-Leu-Leu-Leu-aldehyde)
p18 levels in AS slices (p18 [4]; acute hippocampal slices from AS mice, MG132 10 μM): marginally
p18 levels in WT slices (p18 [4]; acute hippocampal slices from WT mice, MG132 10 μM or BafA 100 nM): significantly increased
p18 intensity (p18 [3]; cultured hippocampal neurons from WT mice, 10 μM): markedly increased
